Earlier results as cited in EP0890570A2, “Tertiary alkyl primary amines and process for preparing the same” (ROHM AND HAAS COMPANY, priority 1997, dated 1999).

Details: conventional comparison amines, stated without source or method

CC(C)CCCCCCN [iso-nonylamine]
pKa: 10

CCCCCCCCCN [n-nonylamine]
pKa: 10
